Assay results as given in patent US20200188466A1, “COMPOSITIONS OF SCHISANDRA EXTRACTS AND METHODS THEREOF” (Reyoung Corporation, priority 2017, published 2020).

Assay: Toxicological study: serum chemistry after celastrol with and without Schisandrin A
Type: in vivo, Sprague Dawley rats
Conditions: rats, 24 hours after celastrol 1.8 mg/kg oral
Experimental: 42 Male Sprague Dawley rats (weight, 210-250 g) were maintained on a 12-hour light/dark cycle with free access to water and lab chow for 10-14 h prior to the experiment. Rats were randomly divided into 7 groups (n=6 each) and groups 2-7 received 0 mg/kg, 5.5 mg/kg, and 11.0 mg/kg, 22.0 mg/kg, 44.0 mg/kg and 88.0 mg/kg of Schisandrin A in 1% CMC-Na (300-800 cps) via oral administration, respectively. After 5 minutes, all the groups received 1.8 mg/kg of celastrol in a solution of 2% DMSO-98% sterile water via oral administration.
At 24 hours of celastrol treatment, blood was collected from the rats in plasma kinetic study.

[1] = Group 1, no Schisandrin A dose stated
[2] = Group 2, Schisandrin A 0 mg/kg oral
[3] = Group 3, Schisandrin A 5.5 mg/kg oral
[4] = Group 4, Schisandrin A 11.0 mg/kg oral
[5] = Group 5, Schisandrin A 22.0 mg/kg oral
[6] = Group 6, Schisandrin A 44.0 mg/kg oral
[7] = Group 7, Schisandrin A 88.0 mg/kg oral

Structure (SMILES): CC1=C(O)C(=O)C=C2C1=CC=C1[C@@]2(C)CC[C@@]2(C)[C@@H]3C[C@](C)(C(=O)O)CC[C@]3(C)CC[C@]12C [celastrol]
- Serum ALT [1]: 54.5 ± 6.7 U/L
- Serum AST [1]: 100.0 ± 7.0 U/L
- Serum creatinine [1]: 0.48 ± 0.01 mg/dL
- Serum urea [1]: 19.6 ± 2.7 mg/dL
- Serum ALT [2]: 51.2 ± 3.5 U/L
- Serum AST [2]: 92.0 ± 6.0 U/L
- Serum creatinine [2]: 0.49 ± 0.05 mg/dL
- Serum urea [2]: 20.1 ± 1.8 mg/dL
- Serum ALT [3]: 54.5 ± 5.7 U/L
- Serum AST [3]: 91.0 ± 4.0 U/L
- Serum creatinine [3]: 0.48 ± 0.02 mg/dL
- Serum urea [3]: 19.4 ± 2.5 mg/dL
- Serum ALT [4]: 52.5 ± 5.8 U/L
- Serum AST [4]: 91.0 ± 9.0 U/L
- Serum creatinine [4]: 0.49 ± 0.02 mg/dL
- Serum urea [4]: 18.3 ± 1.5 mg/dL
- Serum ALT [5]: 49.3 ± 6.1 U/L
- Serum AST [5]: 106.0 ± 14.0 U/L
- Serum creatinine [5]: 0.50 ± 0.02 mg/dL
- Serum urea [5]: 16.5 ± 1.5 mg/dL
- Serum ALT [6]: 52.4 ± 8.3 U/L
- Serum AST [6]: 111.0 ± 40.0 U/L
- Serum creatinine [6]: 0.49 ± 0.01 mg/dL
- Serum urea [6]: 17.9 ± 4.0 mg/dL
- Serum ALT [7]: 53.4 ± 7.1 U/L
- Serum AST [7]: 92.0 ± 9.0 U/L
- Serum creatinine [7]: 0.49 ± 0.03 mg/dL
- Serum urea [7]: 18.8 ± 3.4 mg/dL
